One block for each compound: values may come before it.
Key:
γ-secretase [1] = assay: GSM activity in vitro: Aβ42 and total Aβ ELISA of conditioned media of CHO cells expressing APP-WT or APP-V717F; assay type: cell-based, Chinese hamster; settings: for ED50 (in vitro GSM activity): Fig. 1
Excerpt: Conditioned media were collected and Aβ42 and total Aβ levels were quantified by ELISA analyses. […] All experiments were repeated at least twice. Results are presented as mean ± range. GSM gamma-secretase modulator

γ-secretase [2] = target: T1, γ-secretase (Macaca fascicularis, UniProt Q8HXW5); assay: Aβ levels in CSF and plasma of conscious cynomolgus monkeys after a single dose; assay type: in vivo, cynomolgus monkeys (Macaca fascicularis); settings: monkey CSF, 30 mg/kg oral
T1 construct: γ-secretase complex can be modulated in primates; from tissue; host or cells: living cynomolgus monkeys; Aβ read out in CSF and plasma

γ-secretase [3] = tested on: γ-secretase; design: method as in PMID 17962197; settings: APP transgenic mice, cited from earlier work
γ-secretase [4] = target: T1, γ-secretase; assay: Aβ levels in CSF and plasma of conscious cynomolgus monkeys after a single dose; assay type: in vivo, cynomolgus monkeys (Macaca fascicularis)
Method: The effects of drugs on CSF and plasma Aβ ratios in monkeys and plasma Aβ ratios in humans were analyzed by a two-way analysis of variance with a post hoc Bonferroni posttest (GraphPad Prism, La Jolla, CA, USA).
Aβ42, Aβ38 and total Aβ levels in CSF samples were measured. During the observation period, there was variation in Aβ levels in untreated animals (Fig. 2a–c) without a clear diurnal pattern, consistent with the reports from catheter studies in humans. Animals were then treated with drugs in subsequent weeks sequentially. Between each treatment, all animals were rested for 1 week to allow drug washout. […] In light of the CSF results, the effects of GSM-1 were mirrored in plasma. […] This was evident as early as 2 h following drug administration and plateaued starting at 4 h. GSM-1 reduced the ratio of Aβ42/Aβ40 up to 40 % at 6 h after dosing.
Cerebrospinal fluid (CSF) and plasma samples were collected at indicated time points and amyloid beta-peptide (Aβ) levels were measured. Levels of total Aβ (a), Aβ42 (b) and Aβ38 (c) were compared in CSF samples. […] The levels and ratios were normalized to baseline (time 0 or before drug dosing) and shown as percentages of baseline. Seven monkeys were used in the no-treatment group. […] Results are presented as mean ± SEM; *p < 0.05, **p < 0.001. GSM gamma-secretase modulator

[5] = mild to moderate AD, 400 mg twice daily, 1 year; cited from earlier work
[6] = monkey, 100 mg/kg oral, first sampled time point, all but one animal
γ-secretase [7] = tested on: γ-secretase; design: method as in PMID 11700559, PMID 12897211; settings: Tg2576 mice, 50 mg/kg for 3 days; cited from earlier work
[8] = design: method as in PMID 12897211; settings: mice, 50 mg/kg daily for 3 days, 2 h after the last dose; cited from earlier work
[9] = Plasma drug concentration in mice treated with ibuprofen for 3 days (literature); assay type: in vivo; settings: Tg2576 (APP transgenic line), mouse, 50 mg/kg daily for 3 days, from 43 μM and ~5.5 % unbound, read-out: estimated unbound concentration in plasma
in vivo = settings: female, cynomolgus monkey, po, 100 mg/kg
clinical = settings: human
[10] = Adverse events in the human study; settings: healthy humans, 800 mg IV single dose or placebo
[11] = design: method as in PMID 17650315, PMID 20009055; settings: late-phase human clinical trial; cited from earlier work

CSF Aβ38 level (mean ± SD) (γ-secretase [2]; 8 h postdosing, baseline 1033.3 ± 300.0): 1954.8 ± 698.6 pg/mL
CSF Aβ42 level (mean ± SD) (γ-secretase [2]; 12 h postdosing, baseline 267.1 ± 60.0): 183.5 ± 96.1 pg/mL
time of maximum reduction in CSF (γ-secretase [4]; monkey CSF, 30 mg/kg oral): 8 to 12 h
effect on CSF total Aβ levels (γ-secretase [4]; monkey CSF, 30 mg/kg oral single dose): did not change
maximal increase in CSF Aβ38 levels (γ-secretase [4]; monkey CSF, 30 mg/kg oral single dose, 8 h postdosing): ~ 90%
maximal reduction in CSF Aβ42 levels (γ-secretase [4]; monkey CSF, 30 mg/kg oral single dose, 12 h postdosing): ~ 32%
maximal increase of the ratio of Aβ38 to total Aβ in CSF (γ-secretase [4]; monkey CSF, 30 mg/kg oral, after 8 h, p < 0.05): 70%
ratio of Aβ42 to total Aβ in CSF, relative to baseline (γ-secretase [4]; monkey CSF, single dose 30 mg/kg, baseline to postdosing): 65%
reduction of the ratio of Aβ42/Aβ40 in plasma (γ-secretase [4]; monkey plasma, 30 mg/kg oral, 6 h after dosing): up to 40%
time at which the decrease of plasma Aβ42/Aβ40 ratio was first evident (γ-secretase [4]; monkey plasma, 30 mg/kg oral, plateaued starting at 4 h): 2 h
ratio of Aβ42 to Aβ40 in plasma, relative to baseline (γ-secretase [4]; monkey plasma, single dose 30 mg/kg, baseline to postdosing): 60%
effect on ratio of Aβ42/Aβ40 in plasma (γ-secretase [4]; monkey plasma, single dose, Fig. 2f): markedly decreased
Compound: CC(C)CC[C@H](c1ccc(Cl)cc1)N1CC[C@@H](CC(=O)O)C[C@H]1c1ccc(C(F)(F)F)cc1 [GSM-1]
effect on ratio of Aβ42 to total Aβ (γ-secretase [1]; CHO APP-WT or APP-V717F, 24 h, dose-dependent, p < 0.001): significantly reduced
concentration giving 50 % reduction of the ratio of Aβ42 to total Aβ (γ-secretase [1]; CHO cells expressing APP-WT or APP-V717F, 24 h incubation, ELISA): 0.2 µM
ED50 (in vitro GSM activity) (γ-secretase [1]): approximately 200 nM
lowering of brain Aβ42 (γ-secretase [3]; single dose 3 mg/kg): 25%
reduction of brain Aβ42 (γ-secretase [3]; single dose 30 mg/kg): 70%
effect on Aβ38 levels (γ-secretase [3]; single dose): concomitantly increased

time of highest concentrations in plasma and CSF [6]: 2 h
concentration at 3 days [9]: ~2370 nM
AUC(0-t) (in vivo; CSF): 36.4 ± 11.8 µM·h
AUC(0-t) (in vivo; plasma): 3740 ± 924 µM·h
AUC(0-t) (clinical; both, in vivo, iv, 800 mg): 831 ± 156 µM·h
time of return of plasma levels to baseline (clinical; 800 mg IV): ≤ 8 h
time of highest plasma levels (clinical; 800 mg IV, first time sampled): 1 h
Compound: CC(C)Cc1ccc(C(C)C(=O)O)cc1 (centres unmarked) [ibuprofen]
clinical benefit [5]: no benefit
ED50 (in vitro GSM activity) (γ-secretase [1]): 250 to 500 µM
effect on Aβ40 levels (reduced or not) (γ-secretase [7]): not
effect on Aβ42 levels (γ-secretase [7]): significantly reduced
average plasma drug concentration [8]: 43 µM
adverse events during the study period [10]: no adverse events were observed

Compound: C[C@@H](C(=O)O)c1ccc(-c2ccccc2)c(F)c1 [tarenflurbil]
clinical efficacy [11]: not to be effective

Source: publication PMC4523931, “Modulation of Aβ42 in vivo by γ-secretase modulator in primates and humans” (Alzheimer's Research & Therapy, 2015)
